# Laboratory results: patent publication US20150366890A1, “COMPOSITIONS AND METHODS FOR TREATING FUNGAL INFECTIONS” (TRUSTEES OF BOSTON UNIVERSITY, priority 2013, published 2015)
# System: S. cerevisiae single-deletion yeast strains
# Test: High-throughput 96-well screen of AF sensitivity of single-gene knockouts (CFU at start and after 8 hours)
# Assay type: cell-based
# Experimental: To identify genes critical to AF action, the AF sensitivity of single-gene knockouts identified through the common transcriptional analysis were identified. In the first pass-through, 56 testable genes were identified. This set was later expanded to include targets identified through phenotypic analysis and metabolomic profiling, for a total of 84 target genes (Table 2). The initial 56 targets were tested using a rapid high-throughput 96-well assay with AMB and MCZ to identify single-gene knockouts with elevated resistance to AFs (Table 2). Knockouts that were more resistant to at least one of the AFs were tested individually using the 24-well colony forming (CF) assay. Target genes selected after the initial 56 strains were assayed individually using the 24-well CF assay.
# The first 56 S. cerevisiae strains were acquired from the deletion library and stored in 96-well plates in replicates of three. To start the assay, the plates were defrosted and 10 μl of stored cells were inoculated into 100 μl of fresh synthetic dextrose complete (SDC) media for 16 hours. These overnight cultures were diluted into a fresh 96-well plate with 100 μl of SDC to achieve an OD600 of approximately 0.2. Colony forming units (CFU) in each well were measured at the start of the assay and after 8 hours of incubation. The AF susceptibility of each strain was compared to that of wildtype. Strains with significant susceptibility differences from wildtype were assayed in 0.5 ml of SDC media using the 24-well plate CF assay described above.
structure (smiles),measurement,setting,value
"C[C@@H]1[C@H](O)[C@@H](C)/C=C/C=C/C=C/C=C/C=C/C=C/C=C/[C@H](O[C@@H]2O[C@H](C)[C@@H](O)[C@H](N)[C@@H]2O)C[C@@H]2O[C@](O)(C[C@@H](O)C[C@@H](O)[C@H](O)CC[C@@H](O)C[C@@H](O)CC(=O)O[C@H]1C)C[C@H](O)[C@H]2C(=O)O [AMB, amphotericin B]","96 Well Screen, AF susceptibility vs wildtype","S. cerevisiae PAB101, WT",Normal
same,"96 Well Screen, AF susceptibility vs wildtype","S. cerevisiae PAB102, HSP104 deletion",Resistant (″Resistant″ or ″Sensitive″ indicate at least a 5-fold CFU difference from wildtype at the final time point)
same,"96 Well Screen, AF susceptibility vs wildtype","S. cerevisiae PAB103, SDH2 deletion",Resistant (″Resistant″ or ″Sensitive″ indicate at least a 5-fold CFU difference from wildtype at the final time point)
same,"96 Well Screen, AF susceptibility vs wildtype","S. cerevisiae PAB104, FRE8 deletion",Resistant (″Resistant″ or ″Sensitive″ indicate at least a 5-fold CFU difference from wildtype at the final time point)
same,"96 Well Screen, AF susceptibility vs wildtype","S. cerevisiae PAB105, CHA4 deletion",Resistant (″Resistant″ or ″Sensitive″ indicate at least a 5-fold CFU difference from wildtype at the final time point)
same,"96 Well Screen, AF susceptibility vs wildtype","S. cerevisiae PAB106, FMS1 deletion",Resistant (″Resistant″ or ″Sensitive″ indicate at least a 5-fold CFU difference from wildtype at the final time point)
same,"96 Well Screen, AF susceptibility vs wildtype","S. cerevisiae PAB107, NDE1 deletion",Resistant (″Resistant″ or ″Sensitive″ indicate at least a 5-fold CFU difference from wildtype at the final time point)
same,"96 Well Screen, AF susceptibility vs wildtype","S. cerevisiae PAB108, ALD3 deletion",Resistant (″Resistant″ or ″Sensitive″ indicate at least a 5-fold CFU difference from wildtype at the final time point)
same,"96 Well Screen, AF susceptibility vs wildtype","S. cerevisiae PAB109, GAD1 deletion",Normal
same,"96 Well Screen, AF susceptibility vs wildtype","S. cerevisiae PAB110, PGM3 deletion",Normal
same,"96 Well Screen, AF susceptibility vs wildtype","S. cerevisiae PAB111, PYK2 deletion",Resistant (″Resistant″ or ″Sensitive″ indicate at least a 5-fold CFU difference from wildtype at the final time point)
same,"96 Well Screen, AF susceptibility vs wildtype","S. cerevisiae PAB112, MNE1 deletion",Normal
same,"96 Well Screen, AF susceptibility vs wildtype","S. cerevisiae PAB113, FUM1 deletion",Normal
same,"96 Well Screen, AF susceptibility vs wildtype","S. cerevisiae PAB114, TPK2 deletion",Normal
same,"96 Well Screen, AF susceptibility vs wildtype","S. cerevisiae PAB115, ATG29 deletion",Resistant (″Resistant″ or ″Sensitive″ indicate at least a 5-fold CFU difference from wildtype at the final time point)
same,"96 Well Screen, AF susceptibility vs wildtype","S. cerevisiae PAB116, ISU1 deletion",Resistant (″Resistant″ or ″Sensitive″ indicate at least a 5-fold CFU difference from wildtype at the final time point)
same,"96 Well Screen, AF susceptibility vs wildtype","S. cerevisiae PAB117, CYC7 deletion",Normal
same,"96 Well Screen, AF susceptibility vs wildtype","S. cerevisiae PAB118, ARN1 deletion",Normal
same,"96 Well Screen, AF susceptibility vs wildtype","S. cerevisiae PAB119, CIT2 deletion",Resistant (″Resistant″ or ″Sensitive″ indicate at least a 5-fold CFU difference from wildtype at the final time point)
same,"96 Well Screen, AF susceptibility vs wildtype","S. cerevisiae PAB120, HSP30 deletion",Normal
same,"96 Well Screen, AF susceptibility vs wildtype","S. cerevisiae PAB121, SDH1 deletion",Normal
same,"96 Well Screen, AF susceptibility vs wildtype","S. cerevisiae PAB122, TPK3 deletion",Resistant (″Resistant″ or ″Sensitive″ indicate at least a 5-fold CFU difference from wildtype at the final time point)
same,"96 Well Screen, AF susceptibility vs wildtype","S. cerevisiae PAB123, ISU2 deletion",Normal
same,"96 Well Screen, AF susceptibility vs wildtype","S. cerevisiae PAB124, TPK1 deletion",Normal
same,"96 Well Screen, AF susceptibility vs wildtype","S. cerevisiae PAB125, MID2 deletion",Normal
same,"96 Well Screen, AF susceptibility vs wildtype","S. cerevisiae PAB126, SSK1 deletion",Sensitive (″Resistant″ or ″Sensitive″ indicate at least a 5-fold CFU difference from wildtype at the final time point)
same,"96 Well Screen, AF susceptibility vs wildtype","S. cerevisiae PAB127, HSP42 deletion",Normal
same,"96 Well Screen, AF susceptibility vs wildtype","S. cerevisiae PAB128, PIG1 deletion",Normal
same,"96 Well Screen, AF susceptibility vs wildtype","S. cerevisiae PAB130, UGA1 deletion",Resistant (″Resistant″ or ″Sensitive″ indicate at least a 5-fold CFU difference from wildtype at the final time point)
same,"96 Well Screen, AF susceptibility vs wildtype","S. cerevisiae PAB131, MTL1 deletion",Normal
same,"96 Well Screen, AF susceptibility vs wildtype","S. cerevisiae PAB132, CIT3 deletion",Resistant (″Resistant″ or ″Sensitive″ indicate at least a 5-fold CFU difference from wildtype at the final time point)
same,"96 Well Screen, AF susceptibility vs wildtype","S. cerevisiae PAB133, ZWF1 deletion",Normal
same,"96 Well Screen, AF susceptibility vs wildtype","S. cerevisiae PAB134, SUM1 deletion",sensitive
same,"96 Well Screen, AF susceptibility vs wildtype","S. cerevisiae PAB135, NDI1 deletion",Resistant (″Resistant″ or ″Sensitive″ indicate at least a 5-fold CFU difference from wildtype at the final time point)
same,"96 Well Screen, AF susceptibility vs wildtype","S. cerevisiae PAB136, PGM2 deletion",Normal
same,"96 Well Screen, AF susceptibility vs wildtype","S. cerevisiae PAB137, HFD1 deletion",Normal
same,"96 Well Screen, AF susceptibility vs wildtype","S. cerevisiae PAB138, PUF2 deletion",Normal
same,"96 Well Screen, AF susceptibility vs wildtype","S. cerevisiae PAB139, TDH1 deletion",Sensitive (″Resistant″ or ″Sensitive″ indicate at least a 5-fold CFU difference from wildtype at the final time point)
same,"96 Well Screen, AF susceptibility vs wildtype","S. cerevisiae PAB140, GUD1 deletion",Sensitive (″Resistant″ or ″Sensitive″ indicate at least a 5-fold CFU difference from wildtype at the final time point)
same,"96 Well Screen, AF susceptibility vs wildtype","S. cerevisiae PAB141, ATG15 deletion",Sensitive (″Resistant″ or ″Sensitive″ indicate at least a 5-fold CFU difference from wildtype at the final time point)
same,"96 Well Screen, AF susceptibility vs wildtype","S. cerevisiae PAB142, TDH2 deletion",Sensitive (″Resistant″ or ″Sensitive″ indicate at least a 5-fold CFU difference from wildtype at the final time point)
same,"96 Well Screen, AF susceptibility vs wildtype","S. cerevisiae PAB143, ATP1 deletion",Sensitive (″Resistant″ or ″Sensitive″ indicate at least a 5-fold CFU difference from wildtype at the final time point)
same,"96 Well Screen, AF susceptibility vs wildtype","S. cerevisiae PAB144, UGA2 deletion",Sensitive (″Resistant″ or ″Sensitive″ indicate at least a 5-fold CFU difference from wildtype at the final time point)
same,"96 Well Screen, AF susceptibility vs wildtype","S. cerevisiae PAB145, CIT1 deletion",Resistant (″Resistant″ or ″Sensitive″ indicate at least a 5-fold CFU difference from wildtype at the final time point)
same,"96 Well Screen, AF susceptibility vs wildtype","S. cerevisiae PAB146, SOLI deletion",Normal
same,"96 Well Screen, AF susceptibility vs wildtype","S. cerevisiae PAB147, PAN6 deletion",Normal
same,"96 Well Screen, AF susceptibility vs wildtype","S. cerevisiae PAB148, SOL4 deletion",Normal
same,"96 Well Screen, AF susceptibility vs wildtype","S. cerevisiae PAB149, YAK1 deletion",Sensitive (″Resistant″ or ″Sensitive″ indicate at least a 5-fold CFU difference from wildtype at the final time point)
same,"96 Well Screen, AF susceptibility vs wildtype","S. cerevisiae PAB150, PBS2 deletion",Sensitive (″Resistant″ or ″Sensitive″ indicate at least a 5-fold CFU difference from wildtype at the final time point)
same,"96 Well Screen, AF susceptibility vs wildtype","S. cerevisiae PAB152, GPD1 deletion",Sensitive (″Resistant″ or ″Sensitive″ indicate at least a 5-fold CFU difference from wildtype at the final time point)
same,"96 Well Screen, AF susceptibility vs wildtype","S. cerevisiae PAB153, SHO1 deletion",Sensitive (″Resistant″ or ″Sensitive″ indicate at least a 5-fold CFU difference from wildtype at the final time point)
same,"96 Well Screen, AF susceptibility vs wildtype","S. cerevisiae PAB154, FET3 deletion",Sensitive (″Resistant″ or ″Sensitive″ indicate at least a 5-fold CFU difference from wildtype at the final time point)
same,"96 Well Screen, AF susceptibility vs wildtype","S. cerevisiae PAB155, FBP1 deletion",Sensitive (″Resistant″ or ″Sensitive″ indicate at least a 5-fold CFU difference from wildtype at the final time point)
